What was measured:
Test in all cases: Pre-emergent herbicidal activity (Table A)
Type in all cases: in vivo
[1] = test system: Annual Bluegrass; conditions: pre-emergence, Anbg, 11.2 kg/ha, 10-14 days, read-out: herbicidal rating (% inhibition)
Outline: (§1)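 Compound incorporated into the cover-soil layer over sown seed at a rate equivalent to 11.2 kg/ha (acetone or water carrier). Greenhouse growth with watering as needed; ratings reflect percent inhibition per species, recorded around day 11 (range 10–14).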

[2] = test system: Indian Mustard; conditions: Brassica juncea, pre-emergence, Inmu, 11.2 kg/ha, 10-14 days, read-out: herbicidal rating (% inhibition)
Outline: as §1

[3] = test system: Seedling Johnsongrass; conditions: Sorghum halepense, pre-emergence, Sejg, 11.2 kg/ha, 10-14 days, read-out: herbicidal rating (% inhibition)
Outline: as §1

[4] = test system: Wild Buckwheat; conditions: Fallopia convolvulus, pre-emergence, Wibw, 11.2 kg/ha, 10-14 days, read-out: herbicidal rating (% inhibition)
Outline: as §1

[5] = test system: Barnyardgrass; conditions: Echinochloa crus-galli, pre-emergence, Bygr, 11.2 kg/ha, 10-14 days, read-out: herbicidal rating (% inhibition)
Outline: (§2)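 Percent inhibition per species, scored on a rating scale, after pre-emergent soil incorporation: test compound in acetone or water carrier mixed into cover soil, layered over seeded topsoil or vegetative propagules.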

[6] = test system: Cocklebur; conditions: Xanthium strumarium, pre-emergence, Cobu, 11.2 kg/ha, 10-14 days, read-out: herbicidal rating (% inhibition)
Outline: as §2

[7] = test system: Downy Brome; conditions: Bromus tectorum, pre-emergence, Dobr, 11.2 kg/ha, 10-14 days, read-out: herbicidal rating (% inhibition)
Outline: as §2

[8] = test system: Morningglory; conditions: Ipomoea, pre-emergence, Mogl, 11.2 kg/ha, 10-14 days, read-out: herbicidal rating (% inhibition)
Outline: as §2

[9] = test system: Velvetleaf; conditions: Abutilon theophrasti, pre-emergence, Vele, 11.2 kg/ha, 10-14 days, read-out: herbicidal rating (% inhibition)
Outline: as §2

[10] = test system: Yellow Nutsedge; conditions: Cyperus, pre-emergence, Yens, 11.2 kg/ha, 10-14 days, read-out: herbicidal rating (% inhibition)
Outline: as §2

Structure (SMILES) | inhibition at 11200 g/ha [1] [%] | inhibition at 11200 g/ha [2] [%] | inhibition at 11200 g/ha [3] [%] | inhibition at 11200 g/ha [4] [%] | inhibition at 11200 g/ha [5] [%] | inhibition at 11200 g/ha [6] [%] | inhibition at 11200 g/ha [7] [%] | inhibition at 11200 g/ha [8] [%] | inhibition at 11200 g/ha [9] [%] | inhibition at 11200 g/ha [10] [%]
COC(=O)c1c(OC)nc(C(F)(F)F)c(CO)c1CC1CC1 [Compound 117, 3-pyridinecarboxylic acid, 4-(cyclopropylmethyl)-5-(hydroxymethyl)-2-methoxy-6-(trifluoromethyl)-, methyl ester] | 75 to 100 | 50 to 74 | 75 to 100 | 50 to 74 | 75 to 100 | 0 to 24 | 0 to 24 | 0 to 24 | 25 to 49 | 0 to 24
COC(=O)c1c(OC)nc(C(F)(F)F)c(C2SCCCS2)c1CC(C)C [Compound 94, 3-pyridinecarboxylic acid, 5-(1,3-dithian-2-yl)-2-methoxy-4-(2-methylpropyl)-6-(trifluoromethyl)-, methyl ester] | 75 to 100 | 75 to 100 | 75 to 100 | 75 to 100 | 75 to 100 | 25 to 49 | 50 to 74 | 75 to 100 | 75 to 100 | 0 to 24
COC(=O)c1c(OC)nc(C(F)(F)F)c(C(=O)OCC(F)(F)F)c1CC(C)C [Compound 112, 3,5-pyridinedicarboxylic acid, 2-methoxy-4-(2-methylpropyl)-6-(trifluoromethyl)-, 3-methyl 5-(2,2,2-trifluoroethyl) ester] | 75 to 100 | 75 to 100 | 75 to 100 | 75 to 100 | 75 to 100 | 0 to 24 | 75 to 100 | 50 to 74 | 75 to 100 | 0 to 24
COC(=O)c1c(OC)nc(C(F)(F)F)c(-c2ncco2)c1CC(C)C [Compound 130, 3-pyridinecarboxylic acid, 2-methoxy-4-(2-methylpropyl)-5-(2-oxazolyl)-6-(trifluoromethyl)-, methyl ester] | 75 to 100 | 75 to 100 | 75 to 100 | 75 to 100 | 75 to 100 | 25 to 49 | 75 to 100 | 75 to 100 | 75 to 100 | 75 to 100
COC(=O)c1c(OC(Cl)(Cl)Cl)nc(C(F)(F)F)c(C(=O)OC)c1CC(C)C [Compound 96, 3,5-pyridinedicarboxylic acid, 4-(2-methylpropyl)-2-(trichloromethoxy)-6-(trifluoromethyl)-, dimethyl ester] | 75 to 100 | 75 to 100 | 75 to 100 | 75 to 100 | 75 to 100 | 0 to 24 | 50 to 74 | 75 to 100 | 75 to 100 | 0 to 24
COc1nc(C(F)(F)F)c(C(=O)Cl)c(CC(C)C)c1C(=O)SC [Compound 133, 3-pyridinecarbothioic acid, 5-(chlorocarbonyl)-2-methoxy-4-(2-methylpropyl)-6-(trifluoromethyl)-, S-methyl ester] | 0 to 24 | 25 to 49 | 0 to 24 | 0 to 24 | 0 to 24 | 0 to 24 | 0 to 24 | 0 to 24 | 0 to 24 | 0 to 24
C=C1CC(c2c(C(F)(F)F)nc(OC)c(C(=O)OC)c2CC(C)C)OC1=O (stereo not drawn) [Compound 90, 3-pyridinecarboxylic acid, 5-(tetrahydro-4-methylene-5-oxo-2-furanyl)-2-methoxy-4-(2-methylpropyl)-6-(trifluoromethyl)-, methyl ester] | 75 to 100 | 0 to 24 | 25 to 49 | 0 to 24 | 50 to 74 | 0 to 24 | 50 to 74 | 0 to 24 | 0 to 24 | 0 to 24
COC(=O)c1c(OC)nc(C(F)(F)F)c(C(=O)n2cc(N)cn2)c1CC(C)C [Compound 108, 3-pyridinecarboxylic acid, 5-[(4-amino-1H-pyrazo1-1-yl)carbonyl]-2-methoxy-4-(2-methylpropyl)-6-(trifluoromethyl)-, methyl ester] | 75 to 100 | 75 to 100 | 50 to 74 | 75 to 100 | 75 to 100 | 0 to 24 | 0 to 24 | 0 to 24 | 50 to 74 | 0 to 24
COC(=O)c1c(OC)nc(C(F)(F)F)c(C(=O)Cl)c1C1CCC1 [Compound 138, 3-pyridinecarboxylic acid, 5-(chlorocarbonyl)-4-cyclobuty1-2-methoxy-6-(trifluoromethyl)-, methyl ester] | 0 to 24 | 0 to 24 | 0 to 24 | 0 to 24 | 0 to 24 | 0 to 24 | 0 to 24 | 0 to 24 | 0 to 24 | 0 to 24
COC(=O)c1c(OC)nc(C(F)(F)F)c(C2=NCCCO2)c1CC(C)C [Compound 99] | 75 to 100 | 75 to 100 | 75 to 100 | 25 to 49 | 75 to 100 | 0 to 24 | 75 to 100 | 50 to 74 | 75 to 100 | 0 to 24
COc1nc(C(F)(F)F)c(C2OCCCO2)c(CC(C)C)c1C(=O)SC [Compound 136, 3-pyridinecarbothioic acid, 5-(1,3-dioxan-2-yl)-2-methoxy-4-(2-methylpropyl)-6-(trifluoromethyl)-, S-methyl ester] | 75 to 100 | 75 to 100 | 75 to 100 | 75 to 100 | 75 to 100 | 50 to 74 | 75 to 100 | 50 to 74 | 50 to 74 | 25 to 49
COC(=O)c1c(OC)nc(C(F)(F)F)c(-c2nnco2)c1CC(C)C [Compound 125, 3-pyridinecarboxylic acid, 2-methoxy-4-(2-methylpropyl)-5-(1,3,4-oxadiazo1-2-yl)-6-(trifluoromethyl)-, methyl ester] | 75 to 100 | 75 to 100 | 75 to 100 | 75 to 100 | 75 to 100 | 0 to 24 | 75 to 100 | 75 to 100 | 75 to 100 | 0 to 24

Reference: US5391540A, “Substituted pyridine compounds” (Rohm and Haas Company, priority 1993, dated 1995)
